Experimental data published in the NIST ThermoML archive (doi:10.1016/j.jct.2017.12.020).

What was measured:
[1] = Liquid; for speed of sound: Frequency=2 MHz, Pulse-echo method; for mass density: Vibrating tube method
[2] = molar heat capacity at constant pressure; settings: 101.33 kPa, Liquid, Small sample (50 mg) DSC

CCCCCCCCCCCC(=O)OCC [ethyl dodecanoate]
[1]
Settings | mass density [kg/m3] | speed of sound [m/s]
293.15 K, 100 kPa | – | 1339.9
293.15 K, 101.33 kPa | 862.2 | –
293.15 K, 10000 kPa | – | 1390.8
293.15 K, 20000 kPa | – | 1436.7
293.15 K, 30000 kPa | – | 1479.3
293.15 K, 40000 kPa | – | 1519
293.15 K, 50000 kPa | – | 1555.9
293.15 K, 60000 kPa | – | 1591.9
293.15 K, 70000 kPa | – | 1626.2
293.15 K, 80000 kPa | – | 1659.7
293.15 K, 90000 kPa | – | 1690.9
293.15 K, 100000 kPa | – | 1720.9
293.15 K, 120000 kPa | – | 1778.5
303.15 K, 101.33 kPa | 854.3 | –
313.15 K, 100 kPa | – | 1266.1
313.15 K, 101.33 kPa | 846.5 | –
313.15 K, 10000 kPa | – | 1317.6
313.15 K, 20000 kPa | – | 1365
313.15 K, 30000 kPa | – | 1409.3
313.15 K, 40000 kPa | – | 1452.1
313.15 K, 50000 kPa | – | 1491.4
313.15 K, 60000 kPa | – | 1529.2
313.15 K, 70000 kPa | – | 1564.8
313.15 K, 80000 kPa | – | 1600.2
313.15 K, 90000 kPa | – | 1632.3
313.15 K, 100000 kPa | – | 1663
313.15 K, 120000 kPa | – | 1721.9
313.15 K, 140000 kPa | – | 1777.9
313.15 K, 160000 kPa | – | 1830.9
323.15 K, 101.33 kPa | 838.8 | –
333.15 K, 100 kPa | – | 1194
333.15 K, 101.33 kPa | 831.1 | –
333.15 K, 10000 kPa | – | 1250.3
333.15 K, 20000 kPa | – | 1300.9
333.15 K, 30000 kPa | – | 1348
333.15 K, 40000 kPa | – | 1393.4
333.15 K, 50000 kPa | – | 1434.3
333.15 K, 60000 kPa | – | 1473.3
333.15 K, 70000 kPa | – | 1509.8
333.15 K, 80000 kPa | – | 1545.4
333.15 K, 90000 kPa | – | 1578.6
333.15 K, 100000 kPa | – | 1610.9
333.15 K, 120000 kPa | – | 1674.1
333.15 K, 140000 kPa | – | 1730.4
333.15 K, 160000 kPa | – | 1782.7
333.15 K, 180000 kPa | – | 1835.3
333.15 K, 200000 kPa | – | 1883.8
343.15 K, 101.33 kPa | 823.2 | –
353.15 K, 100 kPa | – | 1125.7
353.15 K, 101.33 kPa | 815.2 | –
353.15 K, 10000 kPa | – | 1186
353.15 K, 20000 kPa | – | 1240.6
353.15 K, 30000 kPa | – | 1290.3
353.15 K, 40000 kPa | – | 1337.1
353.15 K, 50000 kPa | – | 1379.7
353.15 K, 60000 kPa | – | 1419.8
353.15 K, 70000 kPa | – | 1458.8
353.15 K, 80000 kPa | – | 1496.2
353.15 K, 90000 kPa | – | 1530.6
353.15 K, 100000 kPa | – | 1564.4
353.15 K, 120000 kPa | – | 1627
353.15 K, 140000 kPa | – | 1685.1
353.15 K, 160000 kPa | – | 1740.7
353.15 K, 180000 kPa | – | 1793.6
353.15 K, 200000 kPa | – | 1843.5

viscosity [mPa·s], [1]
Settings | 293.15 K | 313.15 K | 333.15 K | 353.15 K
101.33 kPa, Capillary tube (Ostwald / Ubbelohde) method | 3.35 | 2.19 | 1.55 | 1.16
10000 kPa, quartz crystal resonator | 3.77 | 2.46 | 1.74 | 1.29
20000 kPa, quartz crystal resonator | 4.28 | 2.75 | 1.91 | 1.44
30000 kPa, quartz crystal resonator | 4.78 | 3.11 | 2.13 | 1.58
40000 kPa, quartz crystal resonator | 5.39 | 3.37 | 2.33 | 1.73
50000 kPa, quartz crystal resonator | 5.94 | 3.74 | 2.55 | 1.9
60000 kPa, quartz crystal resonator | 6.65 | 4.11 | 2.82 | 2.05
70000 kPa, quartz crystal resonator | 7.25 | 4.45 | 3.08 | 2.22
80000 kPa, quartz crystal resonator | 8.13 | 4.92 | 3.29 | 2.4
90000 kPa, quartz crystal resonator | 8.91 | 5.46 | 3.6 | 2.58
100000 kPa, quartz crystal resonator | 9.76 | 5.96 | 3.94 | 2.78
120000 kPa, quartz crystal resonator | 11.9 | 6.77 | 4.55 | 3.22
140000 kPa, quartz crystal resonator | – | 8.06 | 5.27 | 3.68
160000 kPa, quartz crystal resonator | – | 9.57 | 6.1 | 4.19
180000 kPa, quartz crystal resonator | – | – | 6.98 | 4.76
200000 kPa, quartz crystal resonator | – | – | 7.85 | 5.28

[2]
Settings | molar heat capacity at constant pressure [J/K/mol]
297.91 K | 459.03
307.79 K | 464.37
317.66 K | 469.8
327.54 K | 475.42
337.42 K | 481.45
347.29 K | 487.46
357.17 K | 493.28
367.05 K | 499.88
376.92 K | 507.07
386.8 K | 515.39

CCCCCCCCCCCC(=O)OC [methyl dodecanoate]
[1]
Settings | mass density [kg/m3] | speed of sound [m/s]
293.15 K, 100 kPa | – | 1351.3
293.15 K, 101.33 kPa | 869.2 | –
293.15 K, 10000 kPa | – | 1400.9
293.15 K, 20000 kPa | – | 1445.1
293.15 K, 30000 kPa | – | 1486.4
293.15 K, 40000 kPa | – | 1526.9
293.15 K, 50000 kPa | – | 1563.8
293.15 K, 60000 kPa | – | 1600
293.15 K, 70000 kPa | – | 1628.6
293.15 K, 80000 kPa | – | 1660.5
293.15 K, 90000 kPa | – | 1690.9
303.15 K, 101.33 kPa | 861.4 | –
313.15 K, 100 kPa | – | 1276.4
313.15 K, 101.33 kPa | 853.8 | –
313.15 K, 10000 kPa | – | 1328
313.15 K, 20000 kPa | – | 1375.3
313.15 K, 30000 kPa | – | 1420
313.15 K, 40000 kPa | – | 1461.6
313.15 K, 50000 kPa | – | 1500.9
313.15 K, 60000 kPa | – | 1537
313.15 K, 70000 kPa | – | 1573.3
313.15 K, 80000 kPa | – | 1607.4
313.15 K, 90000 kPa | – | 1637.8
313.15 K, 100000 kPa | – | 1671.1
313.15 K, 120000 kPa | – | 1728.6
313.15 K, 140000 kPa | – | 1784.4
323.15 K, 101.33 kPa | 845.8 | –
333.15 K, 100 kPa | – | 1205.5
333.15 K, 101.33 kPa | 837.9 | –
333.15 K, 10000 kPa | – | 1259.6
333.15 K, 20000 kPa | – | 1311
333.15 K, 30000 kPa | – | 1357.5
333.15 K, 40000 kPa | – | 1401
333.15 K, 50000 kPa | – | 1441.3
333.15 K, 60000 kPa | – | 1480.9
333.15 K, 70000 kPa | – | 1515.7
333.15 K, 80000 kPa | – | 1550.8
333.15 K, 90000 kPa | – | 1585.9
333.15 K, 100000 kPa | – | 1621.9
333.15 K, 120000 kPa | – | 1682
333.15 K, 140000 kPa | – | 1739.2
333.15 K, 160000 kPa | – | 1791.8
333.15 K, 180000 kPa | – | 1843.5
333.15 K, 200000 kPa | – | 1893.2
343.15 K, 101.33 kPa | 830 | –
353.15 K, 100 kPa | – | 1133.5
353.15 K, 101.33 kPa | 822.2 | –
353.15 K, 10000 kPa | – | 1192.2
353.15 K, 20000 kPa | – | 1247.2
353.15 K, 30000 kPa | – | 1295.9
353.15 K, 40000 kPa | – | 1342.5
353.15 K, 50000 kPa | – | 1386.1
353.15 K, 60000 kPa | – | 1426.2
353.15 K, 70000 kPa | – | 1463.8
353.15 K, 80000 kPa | – | 1500.1
353.15 K, 90000 kPa | – | 1534.8
353.15 K, 100000 kPa | – | 1568.3
353.15 K, 120000 kPa | – | 1632.8
353.15 K, 140000 kPa | – | 1690.8
353.15 K, 160000 kPa | – | 1744.4
353.15 K, 180000 kPa | – | 1802.7
353.15 K, 200000 kPa | – | 1851.2

viscosity [mPa·s], [1]
Settings | 293.15 K | 313.15 K | 333.15 K | 353.15 K
101.33 kPa, Capillary tube (Ostwald / Ubbelohde) method | 3.14 | 2.05 | 1.45 | 1.09
10000 kPa, quartz crystal resonator | 3.53 | 2.3 | 1.61 | 1.21
20000 kPa, quartz crystal resonator | 3.96 | 2.59 | 1.78 | 1.33
30000 kPa, quartz crystal resonator | 4.4 | 2.85 | 1.98 | 1.48
40000 kPa, quartz crystal resonator | 5 | 3.16 | 2.18 | 1.62
50000 kPa, quartz crystal resonator | 5.64 | 3.5 | 2.39 | 1.76
60000 kPa, quartz crystal resonator | 6.21 | 3.85 | 2.62 | 1.92
70000 kPa, quartz crystal resonator | 6.79 | 4.22 | 2.82 | 2.08
80000 kPa, quartz crystal resonator | 7.58 | 4.64 | 3.07 | 2.25
90000 kPa, quartz crystal resonator | – | 5.06 | 3.36 | 2.46
100000 kPa, quartz crystal resonator | – | 5.55 | 3.63 | 2.65
120000 kPa, quartz crystal resonator | – | 6.67 | 4.26 | 3.09
140000 kPa, quartz crystal resonator | – | 7.67 | 4.95 | 3.54
160000 kPa, quartz crystal resonator | – | – | 5.75 | 4.06
180000 kPa, quartz crystal resonator | – | – | 6.56 | 4.64
200000 kPa, quartz crystal resonator | – | – | 7.56 | 5.34

[2]
Settings | molar heat capacity at constant pressure [J/K/mol]
297.91 K | 433.79
307.79 K | 438.57
317.66 K | 443.29
327.54 K | 448.34
337.42 K | 453.83
347.29 K | 459.28
357.17 K | 464.66
367.05 K | 470.72
376.92 K | 477.82
386.8 K | 485.49
